Laboratory results taken from patent USRE39114E1, “Expression of sucrose phosphorylase in plants” (Monsanto Technology LLC, priority 1995, dated 2006).

How the values were obtained:
[1] = molecular target: T1, Streptococcus mutans sucrose phosphorylase (GtfA, S. mutans SP), wild type, gene gtfA SEQ ID NO:5 (Streptococcus mutans serotype c, UniProt P10249); conditions: ratio to L. mesenteroides enzyme
Protocol: (§2) The assay reaction mixture (1 ml final volume) contained 50 mM Hepes-NaOH pH 7.0, 50 mM sucrose, 5 mM MgCl2, 1 mM NADP, 20 mM Kpi monobasic pH 7.0 (50 mM for GtfA), 8 IU phosphoglucomutase, 2 IU glucose-6-phosphate dehydrogenase and appropriate amounts of Spl or GtfA. Production of NADPH was monitored spectrophotometrically at 340 nm. One unit of Spl or GtfA activity was defined as the amount of the enzyme which caused the reduction of 1 μmol of NADP per minute under the above conditions. A control reaction in which inorganic phosphate was omitted from the reaction mixture was always conducted for each Spl or GtfA assay.

[2] = molecular target: T1, Streptococcus mutans sucrose phosphorylase (GtfA, S. mutans SP), wild type, gene gtfA SEQ ID NO:5; design: fragment containing the gtfA gene coding for the Streptococcus mutans sucrose phosphorylase, was cloned into the expression vector pET15b; made in house; host or cells: E. coli BL21 (DE3); conditions: compared with endogenous maize endosperm enzymes; in words; cited from earlier work
[3] = tested on: sucrose phosphorylase (microbial); conditions: general statement, no method given; cited from earlier work
[4] = molecular target: T2, Leuconostoc mesenteroides sucrose phosphorylase (Spl, L. mesenteroides SP), wild type, gene spl SEQ ID NO:6 (Leuconostoc mesenteroides, UniProt Q59495); assay: Kinetic analysis of sucrose phosphorylase Spl (continuous coupled spectrophotometric assay); format: biochemical; conditions: 25° C., pH 7.0, read-out: Km(Pi)
T2 construct: fragment containing the spl gene, encoding the Leuconostoc mesenteroides sucrose phosphorylase enzyme; made in house; host or cells: E. coli BL21 (DE3)
T2 sequence (Q59495 1-490): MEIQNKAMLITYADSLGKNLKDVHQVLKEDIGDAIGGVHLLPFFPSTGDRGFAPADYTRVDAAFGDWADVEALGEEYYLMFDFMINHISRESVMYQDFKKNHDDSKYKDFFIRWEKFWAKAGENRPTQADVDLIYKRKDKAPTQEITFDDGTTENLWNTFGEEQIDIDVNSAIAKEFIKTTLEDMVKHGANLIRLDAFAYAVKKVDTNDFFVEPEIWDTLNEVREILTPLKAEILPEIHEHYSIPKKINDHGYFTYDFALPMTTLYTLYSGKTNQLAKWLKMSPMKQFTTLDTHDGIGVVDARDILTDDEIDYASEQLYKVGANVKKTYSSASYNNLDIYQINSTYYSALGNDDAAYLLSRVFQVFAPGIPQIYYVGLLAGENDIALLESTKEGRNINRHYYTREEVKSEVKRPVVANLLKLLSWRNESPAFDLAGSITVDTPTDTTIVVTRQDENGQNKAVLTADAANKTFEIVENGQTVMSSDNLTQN
Text: (§3) In order to evaluate the kinetic properties of two sucrose phosphorylase enzymes, the sucrose phosphorylase genes from Streptococcus mutans and Leuconostoc mesenteroides were separately cloned into pET15 expression vectors so that they could be overexpressed in E. coli.
(§4) For the purification of sucrose phosphorylase (Spl or GtfA), colonies of cells containing the correct plasmid construct were picked and used to grow liquid cultures (under Ampicillin selection), induced with IPTG (all purification steps were conducted at 4° C.). After growing an induced cell culture, the bacterial cell pellet was spun down and suspended in Buffer A (50 mM Tris-HCl, pH 7.5, 1 mM EDTA, 5% glycerol and 40 μl/ml protease inhibitor cocktail, purchased from Boehringer Mannheim Cat.#1-697-498)and cells were lysed using a French Press. The cell lysate was clarified by centrifugation at 15,000 rpm for 10 minutes. Ammonium sulfate was added to the supernatant to reach 30% saturation, and the resultant mixture was then applied onto a phenyl-Sepharose 4B column which was pre-equilibrated with Buffer B (10 mM Tris-HCl, pH 8.0, 1 mM DTT and 1 mM EDTA) plus 20% (w/v) ammonium sulfate. […] Combined proteins were concentrated by precipitation with 70% saturation of ammonium sulfate followed by resuspension of the protein pellet in a small volume (2 or 4 ml) of Buffer C (10 mM Tris-HCl, 1 mM EDTA and 10% Glycerol). The sample was dialyzed in 2 liters of Buffer C two to three times (about 2 h for each) to completely remove ammonium sulfate prior to further purification. The dialyzed sample was injected into a Mono Q column which was pre-equilibrated with Buffer C. The sucrose phosphorylase was eluted from the column with a linear gradient of NaCl from 0 to 0.4 M in Buffer C.

[5] = molecular target: Leuconostoc mesenteroides sucrose phosphorylase (Spl), gene spl SEQ ID NO:6 (Leuconostoc mesenteroides, UniProt Q59495); conditions: 50 mM Pi, 100 mM sucrose, 35° C., pH 7.0
Text: (§1) To further characterize the sucrose phosphorylases from S. mutans and L. mesenteroides, plasmid constructs containing the spl or the gtfA genes were made for protoplast transformation. A 1461 bp NcoI/BamHI fragment, containing the gtfA gene was isolated by restriction digestion, gel purified, and ligated to a 4646 bp BamHI/NcoI vector fragment containing the enhanced 35S promoter (e35S; Kay et al., 1987), the HSP70 intron (U.S. Pat. No. 5,593,874), the Nopaline synthase 3′ region (Fraley et al., 1983), and a pUC vector derived backbone. A vector was thus created, containing the expression cassette [p-e35S/HSP70/gtfA/NOS3′]. After ligation, the plasmid constructs were transformed into competent DH5α cells, and the transformed cells were plated out on Ampicillin-containing medium. From the colonies that were formed, positive clones were identified by restriction digest. In a similar experiment a 1491bp NcoI/BamHI fragment, containing the spl gene, was isolated by restriction digestion, gel purified, and ligated to the same 4646bp BamHI/NcoI vector fragment (described above). After ligation, transformation of competent cells, and identification of positive clones, the resulting plasmid constructs were used for corn leaf protoplast transformation. Corn leaf protoplast transformation was performed essentially as described by Sheen J., 1991, with some modifications to the protocol.

[6] = molecular target: Streptococcus mutans sucrose phosphorylase (GtfA), gene gtfA SEQ ID NO:5 (Streptococcus mutans serotype c, UniProt P10249); conditions: 50 mM Pi, 100 mM sucrose, 35° C., pH 7.0
Chain of Streptococcus mutans sucrose phosphorylase (GtfA), gene gtfA SEQ ID NO:5 (P10249 whole entry, looked up, change not shown): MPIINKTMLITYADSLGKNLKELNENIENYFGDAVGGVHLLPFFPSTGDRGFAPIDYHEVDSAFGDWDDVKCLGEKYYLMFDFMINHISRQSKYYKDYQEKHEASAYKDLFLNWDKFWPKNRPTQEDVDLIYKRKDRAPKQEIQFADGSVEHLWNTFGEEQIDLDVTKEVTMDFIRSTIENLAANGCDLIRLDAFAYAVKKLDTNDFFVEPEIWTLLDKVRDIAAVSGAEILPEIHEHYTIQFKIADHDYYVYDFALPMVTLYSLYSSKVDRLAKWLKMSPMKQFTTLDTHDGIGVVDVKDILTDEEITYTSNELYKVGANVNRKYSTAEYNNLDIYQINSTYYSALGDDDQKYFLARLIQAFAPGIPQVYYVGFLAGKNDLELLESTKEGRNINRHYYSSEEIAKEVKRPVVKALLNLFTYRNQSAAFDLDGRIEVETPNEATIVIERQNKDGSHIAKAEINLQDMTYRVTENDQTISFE
Text: as §1

[7] = tested on: OC[C@H]1O[C@@](CO)(O[C@H]2O[C@H](CO)[C@@H](O)[C@H](O)[C@H]2O)[C@@H](O)[C@@H]1O; assay: purified protein, by the assay type; conditions: other: 25° C., pH 7.0, S. mutans SP
Protocol: as §2

[8] = substrate: OC[C@H]1O[C@@](CO)(O[C@H]2O[C@H](CO)[C@@H](O)[C@H](O)[C@H]2O)[C@@H](O)[C@@H]1O; assay: Kinetic analysis of sucrose phosphorylase Spl (continuous coupled spectrophotometric assay); format: biochemical, Leuconostoc mesenteroides; conditions: other: 25° C., pH 7.0, L. mesenteroides SP
Text: as §3, §4

T1 sequence (P10249 whole entry, looked up, change not shown, the tested form may be a part): as the sequence (P10249 whole entry, looked up, change not shown) above

## OC[C@H]1O[C@@](CO)(O[C@H]2O[C@H](CO)[C@@H](O)[C@H](O)[C@H]2O)[C@@H](O)[C@@H]1O [sucrose]
[1]
  Km(sucrose) of the S. mutans enzyme lower than that of the L. mesenteroides enzyme: about 10 times lower
  Vmax of S. mutans sucrose phosphorylase lower than that of the enzyme from L. mesenteroides: about 9 times lower
[2]
  Km of GftA for sucrose relative to the endogenous enzymes: lower Km
[3]
  Km: 1 to 25 mM

## O=P(O)(O)O [Pi, inorganic phosphate]
[4]
  Km: 4.88 mM
[5]
  activity (% of optimal activity): about 80%
[6]
  activity (% of optimal activity): 100%

## Streptococcus mutans sucrose phosphorylase (GtfA, S. mutans SP), wild type, gene gtfA SEQ ID NO:5 (Streptococcus mutans UA159)
[7]
  Km: 0.33 mM
  Vmax: 8.5 U/mg

B1: Leuconostoc mesenteroides sucrose phosphorylase (Spl, L. mesenteroides SP), wild type, gene spl SEQ ID NO:6 (Leuconostoc mesenteroides) (protein)
chain: MEIQNKAMLITYADSLGKNLKDVHQVLKEDIGDAIGGVHLLPFFPSTGDRGFAPADYTRVDAAFGDWADVEALGEEYYLMFDFMINHISRESVMYQDFKKNHDDSKYKDFFIRWEKFWAKAGENRPTQADVDLIYKRKDKAPTQEITFDDGTTENLWNTFGEEQIDIDVNSAIAKEFIKTTLEDMVKHGANLIRLDAFAYAVKKVDTNDFFVEPEIWDTLNEVREILTPLKAEILPEIHEHYSIPKKINDHGYFTYDFALPMTTLYTLYSGKTNQLAKWLKMSPMKQFTTLDTHDGIGVVDARDILTDDEIDYASEQLYKVGANVKKTYSSASYNNLDIYQINSTYYSALGNDDAAYLLSRVFQVFAPGIPQIYYVGLLAGENDIALLESTKEGRNINRHYYTREEVKSEVKRPVVANLLKLLSWRNESPAFDLAGSITVDTPTDTTIVVTRQDENGQNKAVLTADAANKTFEIVENGQTVMSSDNLTQN
notes: fragment containing the spl gene, encoding the Leuconostoc mesenteroides sucrose phosphorylase enzyme; made in house; host or cells: E. coli BL21 (DE3)
[8]
  Km: 3.39 mM
  Vmax: 71.3 U/mg
